Molecular target: T1, human MCR1 receptor (Homo sapiens, UniProt Q01726)
T1 construct: expressed in transfected cells
Test: MCR1 standard functional assay (Protocol A): cAMP AlphaScreen in HEK cells
Assay type: cell-based
Conditions: for EC50: Protocol A
Method: Stimulation of adenylate cyclase following receptor activation is a widely used measure of functional activity for a number of receptor systems. The functional assay to measure cyclic AMP (cAMP) utilises human embryonic kidney (HEK) cells that stably express the human melanocortin MCR1, MCR3 or MCR4 receptor. Activation of MCR1, MCR3 or MCR4 receptors stimulates adenylate cyclase, generating cAMP, which is measured using AlphaScreen™ (PerkinElmer assay kits.
The AlphaScreen™ cAMP assay kit consists of ‘donor beads’, ‘acceptor beads’, and biotinylated cAMP which links the different beads together. Excitation of this linked complex at […] in the Fusion™-α microplate analyser results in light emission between […].
(i) MCR1. MCR3 and MCR4 Standard Functional Assay Methodology [Assay Protocol A, B AND C Respectively]
Determination of activity against the human MCR1, MCR3 and MCR4 receptor subtypes was carried out for compounds according to the present invention using three immortalised human embryonic kidney (HEK) cell lines that had been biologically engineered to express the human melanocortin MCR1, MCR3 or MCR4 receptor subtypes. These cell lines were engineered using protocols akin to those outlined by Gouarderes et al (Gouarderes, C., (2002) Neuroscience, 115(2); 349-361).
Such-compound-induced activation of these MCR1, MCR3 or MCR4 receptors lead to the stimulation of the cellular enzyme adenylate cyclase, which in turn lead to the cellular generation, and intra-cellular accumulation, of cyclic adenosine monophosphate (cAMP). […] Intracellular levels of cAMP were quantified using the commercially available AlphaScreen™ assay kits from PerkinElmer. A detailed assay protocol and an explanation of the concept underlying this kit is available through the PerkinElmer website (www.perkinelmer.com). The protocol listed below provides a summary this information.
The quantity of intracellular cAMP produced by compound-induced activation of the MCR1, MCR3 and MCR4 receptors in these three cell lines was measured using a Fusion™-α microplate analyser set to stimulate at a wavelength of 680 nm and to measure the energy emitted at wave lengths between […]. Compound-induced increases in MCR1, MCR3 or MCR4 receptor activation were subsequently quantified as a decrease in the quantity of light emitted at wavelengths between […]. Data analysis was subsequently performed using a curve-fitting program and the apparent potency of the test compound (expressed as an EC50 and defined as the effective compound concentration that elicited 50% of the maximum compound-induced response) extrapolated from the fitted curve.
Stimulation buffer (as per AlphaScreen™ protocol): HBSS supplemented with 0.5 mM IBMX, 5 mM HEPES, 0.1% (w/v) BSA and 10 mM MgCl2.
Lysis buffer (as per AlphaScreen™ protocol): 5 mM HEPES solution supplemented with 0.1% (w/v) BSA and 0.3% (v/v) Tween-20.
Detection mix (as per AlphaScreen™ protocol): Lysis buffer supplemented with the biotinylated cAMP (10 nM) and Donor beads (10 μg/ml) as supplied in the AlphaScreenT cAMP assay kit.
For the MCR1, MCR3 and MCR4 standard functional assay methodologies compounds were initially dissolved in DMSO to give a compound concentration of 4 mM and then further diluted for the assay in stimulation buffer to give actual concentrations 2-fold greater than that desired as the final assay concentration.
The three HEK cell lines, as detailed hereinbefore, expressing the human MCR1, MCR3 or MCR4 receptor subtypes were grown in T225 vent cap flasks containing 50 ml of growth medium (DMEM supplemented with 10% (v/v) FCS, 2 mM L-Glutamine, 25 mM HEPES and 1.0 mg/ml Geneticin) and maintained in a cell incubator at a temperature of 37° C. and in an environment containing 5% CO2. Cells were harvested when they reached 80-90% confluency by first removing the existing growth medium and then washing with PBS that had been pre-warmed to a temperature of 37° C. […]

T1 sequence (Q01726 whole entry): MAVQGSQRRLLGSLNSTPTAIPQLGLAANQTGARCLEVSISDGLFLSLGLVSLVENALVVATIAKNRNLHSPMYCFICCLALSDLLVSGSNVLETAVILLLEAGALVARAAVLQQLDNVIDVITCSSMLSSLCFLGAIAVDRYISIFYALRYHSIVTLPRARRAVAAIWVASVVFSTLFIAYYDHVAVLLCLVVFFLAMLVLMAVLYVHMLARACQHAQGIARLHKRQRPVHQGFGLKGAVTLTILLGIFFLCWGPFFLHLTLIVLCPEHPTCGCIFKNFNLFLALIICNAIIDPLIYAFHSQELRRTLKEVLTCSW

Selectivity MCR1/MCR4 (Table 6, MCR4 by Protocol E)	EC50 (Table 6) [nM]	Selectivity MCR1/MCR4 (Table 5, MCR4 by Protocol C)	EC50 (Table 5) [nM]	Structure (SMILES)
2969	10700	–	–	C[C@@H]1CN(C(=O)[C@@H]2CN(c3ccccn3)C[C@H]2c2ccc(F)cc2F)C[C@H](C)[C@@]1(O)c1ccccc1.Cl [Example 31, (3R,4R,5S)-1-{[(3S,4R)-4-(2,4-difluorophenyl)-1-pyridin-2-ylpyrrolidin-3-yl]carbonyl}-3,5-dimethyl-4-phenylpiperidin-4-ol hydrochloride]
847	1270	–	–	C[C@@H]1CN(C(=O)[C@@H]2CN(c3cccnn3)C[C@H]2c2ccc(F)cc2F)C[C@H](C)[C@@]1(O)c1ccccc1.Cl [Example 35, (3R,4R,5S)-1-{[(3S,4R)-4-(2,4-difluorophenyl)-1-pyridazin-3-ylpyrrolidin-3-yl]carbonyl}-3,5-dimethyl-4-phenylpiperidin-4-ol hydrochloride]
311	8400	–	–	C[C@@H]1CN(C(=O)[C@@H]2CN(C(C)(C)C)C[C@H]2c2ccc(F)cc2F)C[C@H](C)[C@@]1(O)c1ccc(Cl)cc1.Cl [Example 13, (3R,4R,5S)-1-{[(3S,4R)-1-tert-butyl-4-(2,4-difluorophenyl)pyrrolidin-3-yl]carbonyl}-4-(4-chlorophenyl)-3,5-dimethylpiperidin-4-ol hydrochloride]
9	667	–	–	C[C@@H]1CN(C(=O)[C@@H]2CNC[C@H]2c2ccc(F)cc2F)C[C@H](C)[C@@]1(O)c1ccc(F)cc1.Cl [Example 12, (3R,4R,5S)-1-{[(3S,4R)-4-(2,4-difluorophenyl)pyrrolidin-3-yl]carbonyl}-4-(4-fluorophenyl)-3,5-dimethylpiperidin-4-ol hydrochloride]

Further lines, the compound ahead of its results:

Structure (SMILES)	Selectivity MCR1/MCR4 (Table 6, MCR4 by Protocol E)	EC50 (Table 6) [nM]	Selectivity MCR1/MCR4 (Table 5, MCR4 by Protocol C)	EC50 (Table 5) [nM]
C[C@@H]1CN(C(=O)[C@@H]2CN(C(C)(C)C)C[C@H]2c2ccc(F)cc2F)C[C@H](C)[C@@]1(O)c1ccccc1 [Example 1, (3R,4R,5S)-1-{[(3S,4R)-1-tert-Butyl-4-(24-difluorophenyl)pyrrolidin-3-yl]carbonyl}-3,5-dimethyl-4-phenylpiperidin-4-ol]	125	–	324	8100
C[C@@H]1CN(C(=O)[C@@H]2CN(C(C)(C)C)C[C@H]2c2ccc(F)cc2F)C[C@H](C)[C@@]1(O)c1ccccc1.Cl [Example 5, (3R,4R,5S)-1-{[(3S,4R)-1-tert-Butyl-4-(2,4-difluorophenyl)pyrrolidin-3-yl]carbonyl}-3,5-dimethyl-4-phenylpiperidin-4-ol hydrochloride]	125	1200	–	–
CC(C)N1C[C@@H](C(=O)N2C[C@@H](C)[C@](O)(c3ccccc3)[C@@H](C)C2)[C@H](c2ccc(F)cc2F)C1.Cl [Example 6, (3R,4R,5S)-1-{[(3S,4R)-4-(2,4-Difluorophenyl)-1-isopropylpyrrolidin-3-yl]carbonyl}-3,5-dimethyl-4-phenylpiperidin-4-ol hydrochloride]	28	541	–	–

From patent US7649002B2, “(3,5-dimethylpiperidin-1yl)(4-phenylpyrrolidin-3-yl)methanone derivatives as MCR4 agonists” (Pfizer Inc, priority 2004, dated 2010)
